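Each compound was tested at five concentrations against cells in 96-well plates for 48 hours. Abbreviation: GI50, concentration required for 50% inhibition of growth. TGI is the concentration that stops growth completely.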
Tests used:
Test in all cases: NCI-60 cell line screen, 48 h
[1] = tested on: ACHN renal
[2] = tested on: TK-10 renal
[3] = tested on: NCI-H226 lung
[4] = tested on: IGROV1 ovarian
[5] = tested on: RPMI-8226 leukemia
[6] = tested on: HT29 colon
[7] = tested on: DU-145 prostate
[8] = tested on: SK-OV-3 ovarian
[9] = tested on: A549 NSCLC
[10] = tested on: 786-0 renal

Row | Compound | GI50 [1] | TGI [1] | GI50 [2] | TGI [2] | GI50 [3] | TGI [3] | GI50 [4] | TGI [4] | GI50 [5] | TGI [5] | GI50 [6] | TGI [6] | GI50 [7] | TGI [7] | GI50 [8] | TGI [8] | GI50 [9] | TGI [9] | GI50 [10] | TGI [10]
1 | Nc1c2c(c(O)c3c1=C(CO)C=N3)=NCCS2 | 0.269 µM | 0.844 µM | 0.42 µM | 1.46 µM | 0.199 µM | 0.471 µM | 0.209 µM | 0.535 µM | 0.583 µM | 3.12 µM | 0.0794 µM | 0.37 µM | 0.127 µM | 0.253 µM | 0.346 µM | 1.2 µM | 0.0561 µM | 0.219 µM | 0.317 µM | 1.23 µM
2 | C=C1C(=O)OC2C1CCC(C)C1C=CC(=O)C12C (stereo not drawn) | – | 3.25 µM | – | 10.6 µM | – | 13 µM | – | 19.4 µM | – | > 25.3 µM | – | 4.53 µM | – | 7.36 µM | – | 98.8 µM | – | 41.9 µM | – | 4.19 µM
3 | COc1cc2c(cc1OC)-c1ccc3cc4c(cc3c1N(CCCn1ccnc1)C2)OCO4 | 10.1 µM | 65.9 µM | 25.2 µM | 60.5 µM | 5.52 µM | 24.8 µM | 3.61 µM | 29.9 µM | 1.31 µM | 5.62 µM | 3.22 µM | 30.7 µM | 3.21 µM | 34.5 µM | 3.84 µM | 26.8 µM | 8.39 µM | 32.1 µM | 6.04 µM | 32.8 µM
4 | COc1ccc(-c2cc(-c3ccc(Cl)cc3)nc(SCCCC(=O)NO)n2)cc1 | 0.379 µM | 1.88 µM | 0.499 µM | 5.78 µM | 1.49 µM | 6.89 µM | 1.09 µM | 3.56 µM | 0.771 µM | > 24.9 µM | 1.41 µM | 3.77 µM | 0.826 µM | 6 µM | 1.67 µM | 5.68 µM | 1.57 µM | 7.95 µM | 0.594 µM | 4.52 µM
5 | O=c1cc(N2CCN(CCCCCOc3cc(O)c4c(=O)cc(-c5ccccc5)oc4c3)CC2)c2ccccc2o1 | > 100 µM | > 100 µM | > 100 µM | > 100 µM | 23.9 µM | > 100 µM | 47.4 µM | > 100 µM | 12.4 µM | > 100 µM | 17.4 µM | > 100 µM | 89 µM | > 100 µM | > 100 µM | > 100 µM | > 100 µM | > 100 µM | 6.92 µM | > 100 µM
6 | Cc1ccc(NC2=C(Cl)C(=O)N(Cc3ccc(Cl)cc3)C2=O)cc1O | – | – | 15.2 µM | 32.4 µM | 2.55 µM | 13.3 µM | 11.2 µM | 33 µM | 2.04 µM | 14.8 µM | – | – | 14.9 µM | 40.6 µM | 10.9 µM | 32.3 µM | 10.5 µM | 29.2 µM | 0.753 µM | 18.8 µM
7 | O=C1c2ccccc2-c2oc(=O)c3ccccc3c21 | – | > 100 µM | – | > 100 µM | – | > 100 µM | – | > 100 µM | – | > 100 µM | – | > 100 µM | – | > 100 µM | – | > 100 µM | – | – | – | > 100 µM
8 | O=C1CC(=O)N(C(=O)c2nn(-c3ccc(Cl)cc3)cc2O)N1 | 0.544 µM | > 100 µM | 0.35 µM | > 65.2 µM | 0.724 µM | > 96.6 µM | 0.378 µM | 20.2 µM | 0.37 µM | 11.1 µM | 0.585 µM | > 50.4 µM | 0.923 µM | > 100 µM | 1.85 µM | > 100 µM | 0.36 µM | > 100 µM | 3.76 µM | > 64.5 µM
9 | COc1cc(N2CCC(N3CCN(C)CC3)CC2)ccc1Nc1ncnc(Nc2ccccc2S(=O)(=O)C(C)C)n1 | 2.38 µM | 14.8 µM | 5.21 µM | 22 µM | 2.19 µM | 17.5 µM | 2.64 µM | 7.5 µM | 10.9 µM | 41.9 µM | 1.93 µM | 7.25 µM | 5.32 µM | 20.9 µM | 5.18 µM | 30.5 µM | 3.17 µM | 14.9 µM | 8.55 µM | 22.9 µM
10 | C/C(=N\Nc1cc(C)c2ccccc2n1)c1ccccn1 | < 0.0374 µM | 1.14 µM | – | 2.76 µM | 0.225 µM | 2.71 µM | – | 1.49 µM | 0.112 µM | 2.01 µM | 0.0408 µM | 1.8 µM | 0.107 µM | 12.4 µM | 0.119 µM | 8.38 µM | 0.0714 µM | 1.17 µM | 0.135 µM | 1.27 µM
11 | COc1ccc(-c2oc(=O)ccc2-c2cc(OC)c(OC)c(OC)c2)cc1O | 5.05 µM | > 95.2 µM | 14.1 µM | > 84.1 µM | 9.81 µM | > 96 µM | – | – | 1.4 µM | 6.19 µM | 3.97 µM | > 47.3 µM | 2.05 µM | > 100 µM | 1.65 µM | > 42.6 µM | 3.41 µM | > 100 µM | 2.62 µM | > 75.7 µM
12 | c1ccc2c(NCCCCCCNc3c4ccccc4nc4ccccc34)c3ccccc3nc2c1 | – | 1.72 µM | – | 4.9 µM | – | 3.54 µM | – | – | – | 0.25 µM | – | 1.77 µM | – | 2.76 µM | – | 4.31 µM | – | 2.89 µM | – | 2.08 µM
13 | Cc1cc(-c2nc3sccn3c2/C=N/N=C(N)N)c(C)s1 | 19.1 µM | 36.8 µM | 17.4 µM | 31.5 µM | 15.4 µM | 31.7 µM | – | – | 13.3 µM | 33.2 µM | 15.6 µM | 33.8 µM | 14.2 µM | 27.8 µM | 17.5 µM | 32.3 µM | 25.5 µM | 51 µM | 15.7 µM | 29.1 µM

Source: PubChem BioAssay (NCI)
